Reference: US20020091086A1, “Peptides that block viral infectivity and methods of use thereof” (priority 1999, published 2002)
Read-outs that look alike come from different tables or passages of the source.

What was measured:
SIV = SIV infectivity assay in H9 cells, RT activity in supernatant; format: cell-based
HIV-1 [1] = conditions: H9 cells; for Day 10 RT HIV-1 (1:5): supernatant diluted 5-fold
Excerpt: (§1) In this example, the methods that were used to analyze the ability of various tripeptides to inhibit HIV-1, HIV-2, and SIV replication are disclosed. In Experiments 1 and 2, approximately 200,000 H9 cells were infected with HIV-1, HIV-2 or SIV at 25 TCID50 to test the inhibitory effect of the following synthesized tripeptides LKA-NH2, ILK-NH2, GPQ-NH2, GHK-NH2, GKG-NH2, ACQ-NH2, CQG-NH2, ARV-NH2, KAR-NH2, HKA-NH2, GAT-NH2, KAL-NH2, and GPG-NH2. Accordingly, the H9 cells were resuspended with or without the different peptides (approximately 100 μM) in 1 ml of RPMI 1640 medium supplemented with 10% (v/v) heat-inactivated fetal bovine serum (FBS), penicillin (100 u/ml), and streptomycin (100 u/ml), all available through GIBCO, and Polybrene (2 μg/ml), available through Sigma. Thereafter, viruses were added at 25 TCID50 in a volume of 20-30μl. Cells were incubated with virus at 37° C. for 1 hr then pelleted at 170×g for 7 minutes. The cells were then washed three times in RPMI medium without peptides at room temperature and pelleted at 170×g for 7 minutes, as above. After the final wash, the cells were resuspended in RPMI culture medium containing the peptides in a 24-well plate (Costar corporation) and were kept at 37° C. in 5% CO2 with humidity.
(§2) Culture supernatants were collected and analyzed when the medium was changed at 4, 7, 10, and 14 days post infection. To monitor the replication of virus, reverse transcriptase (RT) activity in the supernatants was assayed using a commercially available Lenti-RT activity kit. (Cavidi Tech, Uppsala, Sweden). The amount of RT was determined with the aid of a regression line of standards. The results are presented as absorbance values (OD) and higher absorbance indicates a higher protein concentration and greater viral infection. Syncytium formation was also monitored by microscopic examination.
In Experiment 3, (Table 4), approximately 200,000 H9 cells were infected with HIV-1, HIV-2 or SIV at 25 TCID50 to test the inhibitory effect of different concentrations of peptides GPG-NH2, GKG-NH2 and CQG-NH2 and combinations of these peptides (the indicated concentration corresponds to the concentration of each tripeptide). As above, H9 cells were resuspended with or without the different peptides at varying concentrations in 1 ml of RPMI 1640 medium supplemented with 10% (v/v) heat-inactivated fetal bovine serum (FBS), penicillin (100 u/ml), and streptomycin (100 u/ml), and Polybrene (2 μg/ml). Thereafter, viruses were added at 25 TCID50 in a volume of 20-30 μl. Cells were incubated with the indicated virus at 37° C. for 1 hr then pelleted at 170×g for 7 minutes. The cells were then washed three times in RPMI medium without peptides at room temperature and pelleted at 170×g for 7 minutes, as above. After the final wash, the cells were resuspended in RPMI culture medium containing the peptides in a 24-well plate (Costar corporation) and kept at 37° C. in 5% CO2 with humidity.
Culture supernatants were collected when the medium was changed at 4, 7, and 11 days post infection. As above, the replication of each virus was monitored by detecting reverse transcriptase (RT) activity in the supernatants using the Lenti-RT activity kit. (Cavidi Tech). The amount of RT was determined with the aid of a regression line of standards. The results are presented as absorbance values (OD) and higher absorbance indicates a higher protein concentration and greater viral infection.
In Experiment 4, (Table 5) approximately 200,000 H9 cells were infected with HIV-1 at 25 TCID50 to test the inhibitory effect of different concentrations of peptides GPG-NH2, GKG-NH2 and CQG-NH2 and combinations of these peptides (the indicated concentration corresponds to the total concentration of tripeptide).

HIV-1 [2] = conditions: 100 μM, H9 cells
Excerpt: as §1, §2

HIV-2 = HIV-2 infectivity assay in H9 cells, RT activity in supernatant; format: cell-based
[3] = Experiment 3, 5 μM (of each tripeptide)
[4] = Experiment 3, 20 μM (of each tripeptide)
[5] = Experiment 4, 5 μM (total concentration of tripeptide)
[6] = Experiment 4, 15 μM (total concentration of tripeptide)

cystyl-glutaminyl-glycine amide [CQG-NH2]
Day 7 RT SIV (SIV; Experiment 1, 100 μM): 0.747 OD
Day 10 RT SIV (SIV; Experiment 1, 100 μM): 0.110 OD
Day 7 RT SIV (SIV; Experiment 2, 100 μM): 0.120 OD
Day 10 RT SIV (SIV; Experiment 2, 100 μM): 1.761 OD
Day 7 RT SIV (SIV; [3]): 1.159 OD
Day 10 RT SIV (SIV; [3]): 2.821 OD
Day 7 RT SIV (SIV; [4]): 0.615 OD
Day 10 RT SIV (SIV; [4]): 2.158 OD
Day 7 RT SIV (SIV; Experiment 3, 100 μM): 0.795 OD
Day 10 RT SIV (SIV; Experiment 3, 100 μM): 2.286 OD
SIV infection, result in words (SIV; summary of Experiments 1-3): inhibit or prevent HIV-2 and SIV infection
Day 7 RT HIV-1 (HIV-1 [1]; Experiment 1, 100 μM): 0.091 OD
Day 10 RT HIV-1 (HIV-1 [1]; Experiment 1, 100 μM): 0.108 OD
Day 7 RT HIV-1 (HIV-1 [1]; Experiment 2, 100 μM): 0.143 OD
Day 10 RT HIV-1 (HIV-1 [1]; Experiment 2, 100 μM): 1.546 OD
Day 7 RT HIV-1 (HIV-1 [1]; [3]): 1.547 OD
Day 10 RT HIV-1 (HIV-1 [1]; [3]): 2.028 OD
Day 7 RT HIV-1 (HIV-1 [1]; [4]): 1.578 OD
Day 10 RT HIV-1 (HIV-1 [1]; [4]): 1.484 OD
Day 7 RT HIV-1 (HIV-1 [1]; Experiment 3, 100 μM): 1.520 OD
Day 10 RT HIV-1 (HIV-1 [1]; Experiment 3, 100 μM): 2.014 OD
Day 7 RT HIV-1 (HIV-1 [1]; [5]): 2.991 OD
Day 10 RT HIV-1 (1:5) (HIV-1 [1]; [5]): 1.459 OD
Day 7 RT HIV-1 (HIV-1 [1]; [6]): 2.726 OD
Day 10 RT HIV-1 (1:5) (HIV-1 [1]; [6]): 1.413 OD
Day 7 RT HIV-1 (HIV-1 [1]; Experiment 4, 45 μM): 3.124 OD
Day 10 RT HIV-1 (1:5) (HIV-1 [1]; Experiment 4, 45 μM): 1.364 OD
HIV-1 infection, result in words (HIV-1 [1]; summary of Experiments 1-5): inhibited and/or prevented HIV-1 infection
HIV-1 Syncytia (HIV-1 [2]; Experiment 1): neg
HIV-1 Syncytia (HIV-1 [2]; Experiment 2): neg
Day 7 RT HIV-2 (HIV-2; Experiment 1, 100 μM): 0.217 OD
Day 10 RT HIV-2 (HIV-2; Experiment 1, 100 μM): 0.296 OD
Day 7 RT HIV-2 (HIV-2; Experiment 2, 100 μM): 1.241 OD
Day 10 RT HIV-2 (HIV-2; Experiment 2, 100 μM): 2.501 OD
Day 7 RT HIV-2 (HIV-2; [3]): 1.760 OD
Day 10 RT HIV-2 (HIV-2; [3]): 2.466 OD
Day 7 RT HIV-2 (HIV-2; [4]): 1.748 OD
Day 10 RT HIV-2 (HIV-2; [4]): 2.721 OD
Day 7 RT HIV-2 (HIV-2; Experiment 3, 100 μM): 1.715 OD
Day 10 RT HIV-2 (HIV-2; Experiment 3, 100 μM): 2.815 OD
HIV-2 infection, result in words (HIV-2; summary of Experiments 1-3): inhibit or prevent HIV-2 and SIV infection
